Results: patent US10766869B2, “Triazoles for the treatment of demyelinating dieases” (Vertex Pharmaceuticals Incorporated, priority 2015, dated 2020)
Like-named read-outs stand apart in the source and are kept apart here.

Test system: primary rat mixed cortical cells
Test: In vitro myelination assay (MBP positive myelin strands, fold myelin pixels above background)
Type: cell-based
Settings: Rattus norvegicus; for fold induction at 1 µM: 1.0 μM compound; for fold induction at 10 µM: 10.0 μM compound
Method in brief: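 Mixed cortical culture, P1 rat, 87,500-95,000 cells/well; compound present from seeding, refreshed days 6 and 10; 14 d, 37 °C, 5% CO2. Day 14: PFA fix, anti-MBP + Hoechst. Read-out: fold MBP myelin pixels over untreated, tested at 1.0 and 10.0 μM.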

[1] = relative to baseline of no added compound, read-out: Fold myelin pixels above background, 1.0 μM
[2] = relative to baseline of no added compound, read-out: Fold myelin pixels above background, 10.0 μM
[3] = relative to baseline of no added compound, read-out: Fold myelin pixels above background
[4] = read-out: Fold myelin pixels above background relative to baseline of no added compound

## Cc1cc(-n2cnc(Nc3cc(C4CC4)cc(N4CCN(C5COC5)CC4)c3)n2)ncn1 [Compound 302, N-[3-cyclopropyl-5-[4-(oxetan-3-yl)piperazin-1-yl]phenyl]-1-(6-methylpyrimidin-4-yl)-1,2,4-triazol-3-amine]
[1]
  fold induction at 1 µM: 1000 to 10000
[2]
  fold induction at 10 µM: 1000 to 10000

## Cc1cc(Nc2ncn(-c3cc(F)cc(F)c3)n2)cc(N2CCN(C3CS(=O)(=O)C3)CC2)c1 [Compound 228, 1-(3,5-difluorophenyl)-N-[3-[4-(1,1-dioxothietan-3-yl)piperazin-1-yl]-5-methyl-phenyl]-1,2,4-triazol-3-amine]
[1]
  fold induction at 1 µM: 10 to 100
[2]
  fold induction at 10 µM: 100 to 1000

## Cc1cc(Nc2ncn(-c3ccccc3)n2)cc(N2CCS(=O)(=O)CC2)c1 [Compound 89, N-[3-(1,1-dioxo-1,4-thiazinan-4-yl)-5-methyl-phenyl]-1-phenyl-1,2,4-triazol-3-amine]
[1]
  fold induction at 1 µM: 1000 to 10000
[2]
  fold induction at 10 µM: 100 to 1000

## COC1CCCN(c2cc(C)cc(Nc3ncn(-c4cc(F)cc(F)c4)n3)c2)C1 (stereo not shown) [Compound 293, 1-(3,5-difluorophenyl)-N-[3-(3-methoxy-1-piperidyl)-5-methyl-phenyl]-1,2,4-triazol-3-amine]
[1]
  fold induction at 1 µM: 10 to 100
[2]
  fold induction at 10 µM: 10 to 100

## Fc1ccc(-n2cnc(Nc3cc(C(F)(F)F)cc(N4CCOCC4)n3)n2)cc1F [Compound 770, N-[1-(3,4-difluorophenyl)-1,2,4-triazol-3-yl]-6-morpholino-4-(trifluoromethyl)pyridin-2-amine]
[3]
  fold induction at 1 µM: 10 to 100
  fold induction at 10 µM: 10 to 100

## CCc1cc(Nc2ncn(-c3ccnc(OC)n3)n2)cc(N2CCN(C3COC3)CC2)c1 [Compound 314, N-[3-ethyl-5-[4-(oxetan-3-yl)piperazin-1-yl]phenyl]-1-(2-methoxypyrimidin-4-yl)-1,2,4-triazol-3-amine]
[1]
  fold induction at 1 µM: 10 to 100
[2]
  fold induction at 10 µM: 10 to 100

## Cc1cc(Nc2ncn(-c3cc(F)cc(F)c3)n2)cc(N2CC(C)C(N3CCOCC3)C2)c1 (stereo not shown) [Compound 871, 1-(3,5-difluorophenyl)-N-[3-methyl-5-(3-methyl-4-morpholino-pyrrolidin-1-yl)phenyl]-1,2,4-triazol-3-amine]
[4]
  fold induction at 1 µM: 1 to 10
  fold induction at 10 µM: 1 to 10

## Cc1cc(Nc2ncn(-c3ccnc(C)n3)n2)cc(N2CCN(C3COC3)CC2)c1 [Compound 418, N-[3-methyl-5-[4-(oxetan-3-yl)piperazin-1-yl]phenyl]-1-(2-methylpyrimidin-4-yl)-1,2,4-triazol-3-amine]
[3]
  fold induction at 1 µM: ≤ 1
  fold induction at 10 µM: 10 to 100

## CCc1cc(Nc2ncn(-c3cnccn3)n2)cc(N2CC(N3CCOCC3)C2)c1 [Compound 341, N-[3-ethyl-5-(3-morpholinoazetidin-1-yl)phenyl]-1-pyrazin-2-yl-1,2,4-triazol-3-amine]
[1]
  fold induction at 1 µM: ≤ 1
[2]
  fold induction at 10 µM: 1 to 10

## FC(F)c1cc(Nc2ncn(-c3cccc(C(F)(F)F)c3)n2)nc(N2CCN(C3COC3)CC2)c1 [Compound 680, 4-(difluoromethyl)-6-[4-(oxetan-3-yl)piperazin-1-yl]-N-[1-[3-(trifluoromethyl)phenyl]-1,2,4-triazol-3-yl]pyridin-2-amine]
[3]
  fold induction at 1 µM: 10 to 100
  fold induction at 10 µM: 10 to 100

## Cc1cc(Nc2ncn(-c3cc(F)cc(F)c3)n2)c(F)c(N2CCN(C(CO)CO)CC2)c1 [Compound 989, 2-[4-[3-[[1-(3,5-difluorophenyl)-1,2,4-triazol-3-yl]amino]-2-fluoro-5-methyl-phenyl]piperazin-1-yl]propane-1,3-diol]
[4]
  fold induction at 1 µM: ≤ 1
  fold induction at 10 µM: ≤ 1

## Cc1cc(F)cc(-n2cnc(Nc3cc(C4CC4)cc(N4CCN(C5COC5)CC4)c3)n2)c1 [Compound 73, N-[3-cyclopropyl-5-[4-(oxetan-3-yl)piperazin-1-yl]phenyl]-1-(3-fluoro-5-methyl-phenyl)-1,2,4-triazol-3-amine]
[1]
  fold induction at 1 µM: 100 to 1000
[2]
  fold induction at 10 µM: ≤ 1

## Fc1cc(Nc2ncn(-c3ccccc3)n2)cc(N2CCOCC2)c1 [Compound 80, N-(3-fluoro-5-morpholino-phenyl)-1-phenyl-1,2,4-triazol-3-amine]
[1]
  fold induction at 1 µM: 10 to 100
[2]
  fold induction at 10 µM: 1000 to 10000

## Fc1cc(F)cc(-n2cnc(Nc3cc(N4CCN(C5COC5)CC4)nc(C(F)(F)F)c3)n2)c1 [Compound 760, N-[1-(3,5-difluorophenyl)-1,2,4-triazol-3-yl]-2-[4-(oxetan-3-yl)piperazin-1-yl]-6-(trifluoromethyl)pyridin-4-amine]
[3]
  fold induction at 1 µM: 1 to 10
  fold induction at 10 µM: ≤ 1

## Cc1cc(Nc2ncn(-c3ccccc3)n2)cc(C2CCN(C3COC3)C2)c1 (stereo not shown) [Compound 260, N-[3-methyl-5-[1-(oxetan-3-yl)pyrrolidin-3-yl]phenyl]-1-phenyl-1,2,4-triazol-3-amine]
[1]
  fold induction at 1 µM: 1000 to 10000
[2]
  fold induction at 10 µM: ≤ 1

## FC(F)c1cc(Nc2ncn(-c3cccc(C(F)(F)F)c3)n2)nc(N2CC(N3CCOCC3)C2)c1 [Compound 719, 4-(difluoromethyl)-6-(3-morpholinoazetidin-1-yl)-N-[1-[3-(trifluoromethyl)phenyl]-1,2,4-triazol-3-yl]pyridin-2-amine]
[3]
  fold induction at 1 µM: 1 to 10
  fold induction at 10 µM: ≤ 1

## Cc1cc(Nc2ncn(-c3cc(F)cc(F)c3)n2)cc(N2C3COCC2C3)c1 [Compound 694, 1-(3,5-difluorophenyl)-N-[3-methyl-5-(3-oxa-6-azabicyclo[3.1.1]heptan-6-yl)phenyl]-1,2,4-triazol-3-amine]
[3]
  fold induction at 1 µM: 10 to 100
  fold induction at 10 µM: ≤ 1

## [2H]C1([2H])N(C(C)=O)C([2H])([2H])C([2H])([2H])N(c2cc(C)cc(Nc3ncn(-c4cc(F)cc(F)c4)n3)c2)C1([2H])[2H] [Compound 1044, 1-[2,2,3,3,5,5,6,6-octadeuterio-4-[3-[[1-(3,5-difluorophenyl)-1,2,4-triazol-3-yl]amino]-5-methyl-phenyl]piperazin-1-yl]ethanone]
[4]
  fold induction at 1 µM: 1 to 10
  fold induction at 10 µM: 1 to 10

## CCc1cc(Nc2ncn(-c3cccc(F)c3)n2)cc(N2CC(N3CCOCC3)C2)c1 [Compound 15, N-[3-ethyl-5-(3-morpholinoazetidin-1-yl)phenyl]-1-(3-fluorophenyl)-1,2,4-triazol-3-amine]
[1]
  fold induction at 1 µM: 100 to 1000
[2]
  fold induction at 10 µM: 10 to 100

## Cc1cc(Nc2ncn(-c3cc(F)cc(F)c3)n2)cc(N(C)C2COC2)c1 [Compound 197, N3-[1-(3,5-difluorophenyl)-1,2,4-triazol-3-yl]-N1,5-dimethyl-N1-(oxetan-3-yl)benzene-1,3-diamine]
[1]
  fold induction at 1 µM: 100 to 1000
[2]
  fold induction at 10 µM: 100 to 1000

## Cc1cc(Nc2ncn(-c3cc(F)cc(F)c3)n2)c(F)c(NC2(C)COC2)c1 [Compound 869, N3-[1-(3,5-difluorophenyl)-1,2,4-triazol-3-yl]-2-fluoro-5-methyl-N1-(3-methyloxetan-3-yl)benzene-1,3-diamine]
[4]
  fold induction at 1 µM: 10 to 100
  fold induction at 10 µM: 1 to 10

## CCOCCN1CCN(c2cc(C)cc(Nc3ncn(-c4cc(F)cc(F)c4)n3)c2)CC1 [Compound 973, 1-(3,5-difluorophenyl)-N-[3-[4-(2-ethoxyethyl)piperazin-1-yl]-5-methyl-phenyl]-1,2,4-triazol-3-amine]
[4]
  fold induction at 1 µM: 10 to 100
  fold induction at 10 µM: ≤ 1

## CC(F)(F)c1cc(Nc2ncn(-c3cccc(F)c3)n2)nc(N2CCN(C3COC3)CC2)c1 [Compound 860, 4-(1,1-difluoroethyl)-N-[1-(3-fluorophenyl)-1,2,4-triazol-3-yl]-6-[4-(oxetan-3-yl)piperazin-1-yl]pyridin-2-amine]
[4]
  fold induction at 1 µM: 10 to 100
  fold induction at 10 µM: 1 to 10

## CS(=O)(=O)c1cc(Nc2ncn(-c3cccc(F)c3)n2)cc(N2CCN(C3COC3)CC2)c1 [Compound 361, 1-(3-fluorophenyl)-N-[3-methylsulfonyl-5-[4-(oxetan-3-yl)piperazin-1-yl]phenyl]-1,2,4-triazol-3-amine]
[1]
  fold induction at 1 µM: 100 to 1000
[2]
  fold induction at 10 µM: ≤ 1

## Cc1cc(Nc2ncn(-c3ccc(C#N)cc3)n2)cc(N2CCCC2)c1 [Compound 186, 4-[3-(3-methyl-5-pyrrolidin-1-yl-anilino)-1,2,4-triazol-1-yl]benzonitrile]
[1]
  fold induction at 1 µM: 10 to 100
[2]
  fold induction at 10 µM: 10 to 100

## Cc1cc(Nc2ncn(-c3cc(F)cc(F)c3)n2)cc(N2CC3CC2CO3)c1 (stereo not shown) [Compound 727, 1-(3,5-difluorophenyl)-N-[3-methyl-5-(2-oxa-5-azabicyclo[2.2.1]heptan-5-yl)phenyl]-1,2,4-triazol-3-amine]
[3]
  fold induction at 1 µM: 10 to 100
  fold induction at 10 µM: ≤ 1

## CCc1cc(Nc2ncn(-c3ccc(F)c(F)c3)n2)cc(N2CCN(C3(C)COC3)CC2)c1 [Compound 577, 1-(3,4-difluorophenyl)-N-[3-ethyl-5-[4-(3-methyloxetan-3-yl)piperazin-1-yl]phenyl]-1,2,4-triazol-3-amine]
[3]
  fold induction at 1 µM: 10 to 100
  fold induction at 10 µM: 10 to 100

## Fc1cc(F)cc(-n2cnc(Nc3cc(C4CC4)nc(N4CC[C@@H](F)C4)c3)n2)c1 [Compound 105, 2-cyclopropyl-N-[1-(3,5-difluorophenyl)-1,2,4-triazol-3-yl]-6-[(3R)-3-fluoropyrrolidin-1-yl]pyridin-4-amine]
[1]
  fold induction at 1 µM: 100 to 1000
[2]
  fold induction at 10 µM: 1 to 10

## CCC(CNc1cc(C)cc(Nc2ncn(-c3cc(F)cc(F)c3)n2)c1)N1CCOCC1 (stereo not shown) [Compound 985, N3-[1-(3,5-difluorophenyl)-1,2,4-triazol-3-yl]-5-methyl-N1-(2-morpholinobutyl)benzene-1,3-diamine]
[4]
  fold induction at 1 µM: 1 to 10
  fold induction at 10 µM: 1 to 10
